Source: ChEMBL document CHEMBL3046897, “Synthesis of 3-{4-[4-dimethylamino-6-(4-methyl-2-oxo-2H-chromen-7-yloxy)-[1,3,5]triazin-2-ylamino]-phenyl}-2-phenyl-5-(4-pyridin-2-yl-piperazin-1-ylmethyl)-thiazolidin-4-one and their biological evaluation” (2012)
Converted amounts (≈) assume the structure as drawn.

Legend:
Type in all cases: functional
[1] = test system: Klebsiella pneumoniae; experiment: Antibacterial activity against Klebsiella pneumoniae after 24 hr by agar streak dilution method
[2] = test system: Shigella flexneri; experiment: Antibacterial activity against Shigella flexneri after 24 hr by agar streak dilution method
[3] = test system: Escherichia coli; experiment: Antibacterial activity against Escherichia coli at 100 ug/disk after 24 hr by paper disk diffusion method; details: read-out: IZ
[4] = test system: Bacillus subtilis; experiment: Antibacterial activity against Bacillus subtilis after 24 hr by agar streak dilution method
[5] = test system: Klebsiella pneumoniae; experiment: Antibacterial activity against Klebsiella pneumoniae at 100 ug/disk after 24 hr by paper disk diffusion method; details: read-out: IZ
[6] = test system: Pseudomonas aeruginosa; experiment: Antibacterial activity against Pseudomonas aeruginosa after 24 hr by agar streak dilution method
[7] = test system: Escherichia coli; experiment: Antibacterial activity against Escherichia coli after 24 hr by agar streak dilution method
[8] = test system: Pseudomonas aeruginosa; experiment: Antibacterial activity against Pseudomonas aeruginosa at 100 ug/disk after 24 hr by paper disk diffusion method; details: read-out: IZ
[9] = test system: Salmonella typhi; experiment: Antibacterial activity against Salmonella enterica subsp. enterica serovar Typhi after 24 hr by agar streak dilution method
[10] = test system: Proteus vulgaris; experiment: Antibacterial activity against Proteus vulgaris at 100 ug/disk after 24 hr by paper disk diffusion method; details: read-out: IZ
[11] = test system: Aspergillus clavatus; experiment: Antifungal activity against Aspergillus clavatus after 48 hr by agar streak dilution method
[12] = test system: Aspergillus niger; experiment: Antifungal activity against Aspergillus niger at 100 ug/disk after 48 hr by paper disk diffusion method; details: read-out: IZ
[13] = test system: Candida albicans; experiment: Antifungal activity against Candida albicans after 48 hr by agar streak dilution method
[14] = test system: Aspergillus fumigatus; experiment: Antifungal activity against Aspergillus fumigatus at 100 ug/disc after 48 hr by paper disk diffusion method; details: read-out: IZ
[15] = test system: Aspergillus clavatus; experiment: Antifungal activity against Aspergillus clavatus at 100 ug/disc after 48 hr by paper disk diffusion method; details: read-out: IZ
[16] = test system: Bacillus subtilis; experiment: Antibacterial activity against Bacillus subtilis at 100 ug/disk after 24 hr by paper disk diffusion method; details: read-out: IZ
[17] = test system: Salmonella typhi; experiment: Antibacterial activity against Salmonella enterica subsp. enterica serovar Typhi at 100 ug/disk after 24 hr by paper disk diffusion method; details: read-out: IZ
[18] = test system: Shigella flexneri; experiment: Antibacterial activity against Shigella flexneri at 100 ug/disc after 24 hr by paper disk diffusion method; details: read-out: IZ
[19] = test system: Aspergillus fumigatus; experiment: Antifungal activity against Aspergillus fumigatus after 48 hr by agar streak dilution method
[20] = test system: Candida albicans; experiment: Antifungal activity against Candida albicans at 100 ug/disk after 48 hr by paper disk diffusion method; details: read-out: IZ
[21] = test system: Staphylococcus aureus; experiment: Antibacterial activity against Staphylococcus aureus after 24 hr by agar streak dilution method
[22] = test system: Proteus vulgaris; experiment: Antibacterial activity against Proteus vulgaris after 24 hr by agar streak dilution method
[23] = test system: Staphylococcus aureus; experiment: Antibacterial activity against Staphylococcus aureus at 100 ug/disc after 24 hr by paper disk diffusion method; details: read-out: IZ
[24] = test system: Aspergillus niger; experiment: Antifungal activity against Aspergillus niger after 48 hr by agar streak dilution method

SMILES: Cc1cc(=O)oc2cc(Oc3nc(Nc4ccc(N5C(=O)C(CN6CCN(c7ccccn7)CC6)SC5c5ccccc5Br)cc4)nc(N(C)C)n3)ccc12 (stereo not given)
- MIC [1]: 50 µg/mL (≈ 60.9 µM)
- MIC [2]: 100 µg/mL (≈ 122 µM)
- zone of inhibition at 100 µg/disc [3]: 20 mm
- MIC [4]: 25 µg/mL (≈ 30.5 µM)
- zone of inhibition at 100 µg/disc [5]: 17 mm
- MIC [6]: 25 µg/mL (≈ 30.5 µM)
- MIC [7]: 50 µg/mL (≈ 60.9 µM)
- zone of inhibition at 100 µg/disc [8]: 22 mm
- MIC [9]: 100 µg/mL (≈ 122 µM)
- zone of inhibition at 100 µg/disc [10]: 19 mm
- MIC [11]: 12.5 µg/mL (≈ 15.2 µM)
- zone of inhibition at 100 µg/disc [12]: 25 mm
- MIC [13]: 12.5 µg/mL (≈ 15.2 µM)
- zone of inhibition at 100 µg/disc [14]: 27 mm
- zone of inhibition at 100 µg/disc [15]: 23 mm
- zone of inhibition at 100 µg/disc [16]: 22 mm
- zone of inhibition at 100 µg/disc [17]: 14 mm
- zone of inhibition at 100 µg/disc [18]: 15 mm
- MIC [19]: 6.25 µg/mL (≈ 7.61 µM)
- zone of inhibition at 100 µg/disc [20]: 25 mm
- MIC [21]: 50 µg/mL (≈ 60.9 µM)
- MIC [22]: 50 µg/mL (≈ 60.9 µM)
- zone of inhibition at 100 µg/disc [23]: 20 mm
- MIC [24]: 25 µg/mL (≈ 30.5 µM)

SMILES: Cc1ccc(C2SCC(=O)N2c2ccc(Nc3nc(Oc4ccc5c(C)cc(=O)oc5c4)nc(N(C)C)n3)cc2)cc1 (stereo not given)
- MIC [1]: 100 µg/mL (≈ 172 µM)
- MIC [2]: 25 µg/mL (≈ 43.1 µM)
- zone of inhibition at 100 µg/disc [3]: 13 mm
- MIC [4]: 25 µg/mL (≈ 43.1 µM)
- zone of inhibition at 100 µg/disc [5]: 15 mm
- MIC [6]: 50 µg/mL (≈ 86.1 µM)
- MIC [7]: 100 µg/mL (≈ 172 µM)
- zone of inhibition at 100 µg/disc [8]: 20 mm
- MIC [9]: 25 µg/mL (≈ 43.1 µM)
- zone of inhibition at 100 µg/disc [10]: 14 mm
- MIC [11]: 50 µg/mL (≈ 86.1 µM)
- zone of inhibition at 100 µg/disc [12]: 20 mm
- MIC [13]: 50 µg/mL (≈ 86.1 µM)
- zone of inhibition at 100 µg/disc [14]: 18 mm
- zone of inhibition at 100 µg/disc [15]: 19 mm
- zone of inhibition at 100 µg/disc [16]: 19 mm
- zone of inhibition at 100 µg/disc [17]: 19 mm
- zone of inhibition at 100 µg/disc [18]: 20 mm
- MIC [19]: 50 µg/mL (≈ 86.1 µM)
- zone of inhibition at 100 µg/disc [20]: 20 mm
- MIC [21]: 50 µg/mL (≈ 86.1 µM)
- MIC [22]: 100 µg/mL (≈ 172 µM)
- zone of inhibition at 100 µg/disc [23]: 18 mm
- MIC [24]: 25 µg/mL (≈ 43.1 µM)

SMILES: Cc1cc(=O)oc2cc(Oc3nc(Nc4ccc(N5C(=O)C(CN6CCN(c7ccccn7)CC6)SC5c5ccc(Cl)cc5Cl)cc4)nc(N(C)C)n3)ccc12 (stereo not given)
- MIC [1]: 25 µg/mL (≈ 30.8 µM)
- MIC [2]: 25 µg/mL (≈ 30.8 µM)
- zone of inhibition at 100 µg/disc [3]: 19 mm
- MIC [4]: 12.5 µg/mL (≈ 15.4 µM)
- zone of inhibition at 100 µg/disc [5]: 21 mm
- MIC [6]: 50 µg/mL (≈ 61.7 µM)
- MIC [7]: 25 µg/mL (≈ 30.8 µM)
- zone of inhibition at 100 µg/disc [8]: 18 mm
- MIC [9]: 50 µg/mL (≈ 61.7 µM)
- zone of inhibition at 100 µg/disc [10]: 21 mm
- MIC [11]: 25 µg/mL (≈ 30.8 µM)
- zone of inhibition at 100 µg/disc [12]: 18 mm
- MIC [13]: 50 µg/mL (≈ 61.7 µM)
- zone of inhibition at 100 µg/disc [14]: 19 mm
- zone of inhibition at 100 µg/disc [15]: 23 mm
- zone of inhibition at 100 µg/disc [16]: 23 mm
- zone of inhibition at 100 µg/disc [17]: 18 mm
- zone of inhibition at 100 µg/disc [18]: 20 mm
- MIC [19]: 50 µg/mL (≈ 61.7 µM)
- zone of inhibition at 100 µg/disc [20]: 20 mm
- MIC [21]: 25 µg/mL (≈ 30.8 µM)
- MIC [22]: 12.5 µg/mL (≈ 15.4 µM)
- zone of inhibition at 100 µg/disc [23]: 22 mm
- MIC [24]: 50 µg/mL (≈ 61.7 µM)

SMILES: Cc1cc(=O)oc2cc(Oc3nc(Nc4ccc(N5C(=O)CSC5c5ccc(Cl)cc5)cc4)nc(N(C)C)n3)ccc12 (stereo not given)
- MIC [1]: 50 µg/mL (≈ 83.2 µM)
- MIC [2]: 12.5 µg/mL (≈ 20.8 µM)
- zone of inhibition at 100 µg/disc [3]: 20 mm
- MIC [4]: 100 µg/mL (≈ 166 µM)
- zone of inhibition at 100 µg/disc [5]: 18 mm
- MIC [6]: 100 µg/mL (≈ 166 µM)
- MIC [7]: 50 µg/mL (≈ 83.2 µM)
- zone of inhibition at 100 µg/disc [8]: 15 mm
- MIC [9]: 25 µg/mL (≈ 41.6 µM)
- zone of inhibition at 100 µg/disc [10]: 20 mm
- MIC [11]: 25 µg/mL (≈ 41.6 µM)
- zone of inhibition at 100 µg/disc [12]: 15 mm
- MIC [13]: 25 µg/mL (≈ 41.6 µM)
- zone of inhibition at 100 µg/disc [14]: 18 mm
- zone of inhibition at 100 µg/disc [15]: 21 mm
- zone of inhibition at 100 µg/disc [16]: 16 mm
- zone of inhibition at 100 µg/disc [17]: 21 mm
- zone of inhibition at 100 µg/disc [18]: 24 mm
- MIC [19]: 50 µg/mL (≈ 83.2 µM)
- zone of inhibition at 100 µg/disc [20]: 22 mm
- MIC [21]: 50 µg/mL (≈ 83.2 µM)
- MIC [22]: 25 µg/mL (≈ 41.6 µM)
- zone of inhibition at 100 µg/disc [23]: 18 mm
- MIC [24]: 100 µg/mL (≈ 166 µM)

SMILES: Cc1cc(=O)oc2cc(Oc3nc(Nc4ccc(N5C(=O)CSC5c5ccc(O)cc5O)cc4)nc(N(C)C)n3)ccc12 (stereo not given)
- MIC [1]: 25 µg/mL (≈ 41.8 µM)
- MIC [2]: 25 µg/mL (≈ 41.8 µM)
- zone of inhibition at 100 µg/disc [3]: 20 mm
- MIC [4]: 25 µg/mL (≈ 41.8 µM)
- zone of inhibition at 100 µg/disc [5]: 22 mm
- MIC [6]: 50 µg/mL (≈ 83.5 µM)
- MIC [7]: 25 µg/mL (≈ 41.8 µM)
- zone of inhibition at 100 µg/disc [8]: 18 mm
- MIC [9]: 12.5 µg/mL (≈ 20.9 µM)
- zone of inhibition at 100 µg/disc [10]: 19 mm
- MIC [11]: 50 µg/mL (≈ 83.5 µM)
- zone of inhibition at 100 µg/disc [12]: 18 mm
- MIC [13]: 12.5 µg/mL (≈ 20.9 µM)
- zone of inhibition at 100 µg/disc [14]: 21 mm
- zone of inhibition at 100 µg/disc [15]: 19 mm
- zone of inhibition at 100 µg/disc [16]: 20 mm
- zone of inhibition at 100 µg/disc [17]: 24 mm
- zone of inhibition at 100 µg/disc [18]: 23 mm
- MIC [19]: 25 µg/mL (≈ 41.8 µM)
- zone of inhibition at 100 µg/disc [20]: 22 mm
- MIC [21]: 12.5 µg/mL (≈ 20.9 µM)
- MIC [22]: 50 µg/mL (≈ 83.5 µM)
- zone of inhibition at 100 µg/disc [23]: 22 mm
- MIC [24]: 50 µg/mL (≈ 83.5 µM)
